According to patent publication US12281149B2, “Modulators of G-protein coupled receptors” (priority 2021, dated 2025):
pEC50: −log10 of the molar value. *1 amine or outer side, *2 acyl side, *3 side chain or, on linkers, in order; H or OH if unused. Where a SMILES comes first, the peptide text is derived from it. Side-chain parts run from the residue outwards. [ ]: non-standard residue; d: D form. The star is where a group is joined. Isobutyryl(2-(3-CN-5-F-Ph)) = CC(C)(C(=O)*)c1cc(F)cc(C#N)c1; Ala(1H-tetrazol-5-yl) = N[C@@H](Cc1nnn[nH]1)C(=O)O; C20 diacid = O=C(O)CCCCCCCCCCCCCCCCCCC(=O)*; αMePhe(2-F) = C[C@](N)(Cc1ccccc1F)C(=O)O; γGlu = O=C(O)[C@H](CCC(=O)[*:2])N[*:1]; X22 = CC(C)(C(=O)*)c1ccc(C#N)cc1F; X27 = O=C1CC(C(=O)*)(c2ccccc2)CN1; X33 = CCC(CC)(C(=O)*)c1ccccc1; AEEA = NCCOCCOCC(=O)O; Aib = CC(C)(N)C(=O)O; βAla = NCCC(=O)O

What was measured:
Assay type in all cases: cell-based
GLP-1 receptor [1] = molecular target: T1, GLP-1 receptor (Homo sapiens, UniProt P43220); assay: HitHunter cAMP assay, GLP-1 receptor; settings: for pEC50: CHO cells stably expressing human GLP-1 receptor, cAMP accumulation, 30 min, read-out: EC50 GLP-1R; for Emax: CHO cells, cAMP, normalized to maximum signal from GLP-1 (high) and DMSO (low), read-out: Emax GLP-1R
T1 sequence (P43220 24-463): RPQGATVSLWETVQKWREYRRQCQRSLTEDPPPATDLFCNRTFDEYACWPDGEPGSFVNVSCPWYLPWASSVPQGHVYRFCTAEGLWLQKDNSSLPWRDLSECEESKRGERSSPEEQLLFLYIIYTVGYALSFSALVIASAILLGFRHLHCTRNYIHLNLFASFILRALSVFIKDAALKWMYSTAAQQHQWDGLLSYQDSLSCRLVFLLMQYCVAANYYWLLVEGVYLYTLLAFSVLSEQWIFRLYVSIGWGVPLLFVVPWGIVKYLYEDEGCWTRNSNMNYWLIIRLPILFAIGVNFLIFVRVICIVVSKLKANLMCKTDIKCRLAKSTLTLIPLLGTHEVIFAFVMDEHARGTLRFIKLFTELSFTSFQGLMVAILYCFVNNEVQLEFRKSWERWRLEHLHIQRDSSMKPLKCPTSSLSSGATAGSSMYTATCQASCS

GIP receptor [2] = molecular target: T2, GIP receptor (Homo sapiens, UniProt P48546); assay: HitHunter cAMP assay, GIP receptor; settings: for pEC50: CHO cells stably expressing GIP receptor, cAMP accumulation, 30 min, read-out: EC50 GIP-1R; for Emax: CHO cells, cAMP, normalized to maximum signal from GIP (high) and DMSO (low), read-out: Emax GIP-1R
T2 sequence (P48546 22-466): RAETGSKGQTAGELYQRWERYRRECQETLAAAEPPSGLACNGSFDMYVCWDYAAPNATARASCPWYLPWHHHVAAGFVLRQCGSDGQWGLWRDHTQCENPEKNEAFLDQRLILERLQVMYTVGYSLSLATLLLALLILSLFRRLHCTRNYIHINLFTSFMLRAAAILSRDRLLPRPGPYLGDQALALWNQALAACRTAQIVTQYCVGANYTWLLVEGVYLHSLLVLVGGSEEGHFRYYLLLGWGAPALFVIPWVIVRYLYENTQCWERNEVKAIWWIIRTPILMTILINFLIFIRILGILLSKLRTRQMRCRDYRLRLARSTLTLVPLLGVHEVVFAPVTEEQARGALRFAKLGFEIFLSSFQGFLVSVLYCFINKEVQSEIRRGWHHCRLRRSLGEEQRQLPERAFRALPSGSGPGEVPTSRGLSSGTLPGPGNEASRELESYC

GIP receptor [3] = molecular target: T2, GIP receptor; assay: PathHunter β-arrestin assay, GIP receptor; parameters: host or cells: PathHunter CHO-K1 GIPR β-Arrestin Cell Line; settings: β-arrestin-2 recruitment, PathHunter CHO-K1 GIPR β-Arrestin Cell Line, 90 min at 37° C.; normalized to GIP; read-out: GIPR β Arrestin EC50
GLP-1 receptor [4] = molecular target: T1, GLP-1 receptor; assay: PathHunter β-arrestin assay, GLP-1 receptor; parameters: host or cells: PathHunter CHO-K1 GLP1R β-Arrestin Cell Line; settings: β-arrestin-2 recruitment, PathHunter CHO-K1 GLP1R β-Arrestin Cell Line, 90 min at 37° C.; normalized to GLP-1; read-out: GLP-1R β Arrestin EC50

Structure (SMILES)	pEC50 (GLP-1 receptor [1])	Emax (GLP-1 receptor [1])	pEC50 (GIP receptor [2])	Emax (GIP receptor [2])	pEC50 (GIP receptor [3])	pEC50 (GLP-1 receptor [4])
CC[C@H](C)[C@H](NC(=O)[C@H](CC(C)C)NC(=O)[C@H](Cc1c[nH]c2ccccc12)NC(=O)[C@H](CCC(N)=O)NC(=O)[C@@H](NC(=O)[C@H](Cc1ccccc1)NC(=O)[C@H](C)NC(=O)[C@H](CCCCNC(=O)COCCOCCNC(=O)COCCOCCNC(=O)CC[C@H](NC(=O)CCCCCCCCCCCCCCCCCCC(=O)O)C(=O)O)NC(=O)[C@H](CCC(N)=O)NC(=O)[C@H](C)NC(=O)[C@@H](NC(=O)[C@H](CCCCN)NC(=O)[C@H](CC(=O)O)NC(=O)[C@H](CC(C)C)NC(=O)C(C)(C)NC(=O)[C@@H](NC(=O)[C@H](CO)NC(=O)[C@H](Cc1ccc(O)cc1)NC(=O)[C@H](CC(=O)O)NC(=O)[C@H](CO)NC(=O)[C@@H](NC(=O)[C@H](Cc1ccccc1)NC(=O)[C@@H](NC(=O)CNC(=O)[C@H](Cc1nn[nH]n1)NC(=O)CCNC(=O)C(C)(C)c1cc(F)cc(C#N)c1)[C@@H](C)O)[C@@H](C)O)[C@@H](C)CC)[C@@H](C)CC)C(C)C)C(=O)N[C@@H](C)C(=O)NCC(=O)NCC(=O)N1CCC[C@H]1C(=O)N[C@@H](CO)C(=O)N[C@@H](CO)C(=O)NCC(=O)N[C@@H](C)C(=O)N1CCC[C@H]1C(=O)N1CCC[C@H]1C(=O)N1CCC[C@H]1C(=O)N[C@@H](CO)C(N)=O [Compound 136] ({Isobutyryl(2-(3-CN-5-F-Ph))-βAla}-[Ala(1H-tetrazol-5-yl)]GTFTSDYSI[Aib]LDKIAQK([AEEA-AEEA-γGlu-C20 diacid])AFVQWLIAGGPSSGAPPPS-NH2)	> 10.00	101%	8.00 to 9.00	99%	> 6.00	< 6.00
CC[C@H](C)[C@H](NC(=O)[C@H](CO)NC(=O)[C@H](Cc1ccc(O)cc1)NC(=O)[C@H](CC(=O)O)NC(=O)[C@H](CO)NC(=O)[C@@H](NC(=O)[C@H](Cc1ccccc1)NC(=O)[C@@H](NC(=O)CNC(=O)[C@H](CCC(=O)O)NC(=O)CCNC(=O)C1(c2ccccc2)CCOCC1)[C@@H](C)O)[C@@H](C)O)C(=O)N[C@@H](Cc1ccc(O)cc1)C(=O)N[C@@H](CC(C)C)C(=O)N[C@@H](CC(=O)O)C(=O)N[C@@H](CCCCN)C(=O)N[C@@H](CCC(N)=O)C(=O)N[C@@H](C)C(=O)N[C@@H](C)C(=O)NC(C)(C)C(=O)N[C@@H](CCC(=O)O)C(=O)N[C@@H](Cc1ccccc1)C(=O)N[C@H](C(=O)N[C@@H](CC(N)=O)C(=O)N[C@@H](Cc1c[nH]c2ccccc12)C(=O)N[C@@H](CC(C)C)C(=O)N[C@@H](CC(C)C)C(=O)N[C@@H](C)C(=O)NCC(=O)NCC(=O)N1CCC[C@H]1C(=O)N[C@@H](CO)C(=O)N[C@@H](CO)C(=O)NCC(=O)N[C@@H](C)C(=O)N1CCC[C@H]1C(=O)N1CCC[C@H]1C(=O)N1CCC[C@H]1C(=O)N[C@@H](CO)C(=O)N[C@@H](CCCCNC(=O)COCCOCCNC(=O)COCCOCCNC(=O)CC[C@H](NC(=O)CCCCCCCCCCCCCCCCCCC(=O)O)C(=O)O)C(N)=O)C(C)C [Compound 154]	8.00 to 9.00	99%	7.00 to 8.00	106%	< 6.00	< 6.00
CC[C@H](C)[C@H](NC(=O)[C@H](CC(C)C)NC(=O)[C@H](Cc1c[nH]c2ccccc12)NC(=O)[C@H](CCC(N)=O)NC(=O)[C@@H](NC(=O)[C@H](Cc1ccccc1)NC(=O)[C@H](C)NC(=O)[C@H](CCCCNC(=O)COCCOCCNC(=O)COCCOCCNC(=O)CC[C@H](NC(=O)CCCCCCCCCCCCCCCCCCC(=O)O)C(=O)O)NC(=O)[C@H](CCC(N)=O)NC(=O)[C@H](C)NC(=O)[C@@H](NC(=O)[C@H](CCCCN)NC(=O)[C@H](CC(=O)O)NC(=O)[C@H](CC(C)C)NC(=O)C(C)(C)NC(=O)[C@@H](NC(=O)[C@H](CO)NC(=O)[C@H](Cc1ccc(O)cc1)NC(=O)[C@H](CC(=O)O)NC(=O)[C@H](CO)NC(=O)[C@@H](NC(=O)[C@H](Cc1ccccc1)NC(=O)[C@@H](NC(=O)CNC(=O)[C@H](CCC(=O)O)NC(=O)CCNC(=O)C(CC)(CC)c1ccccc1)[C@@H](C)O)[C@@H](C)O)[C@@H](C)CC)[C@@H](C)CC)C(C)C)C(=O)N[C@@H](C)C(=O)NCC(=O)NCC(=O)N1CCC[C@H]1C(=O)N[C@@H](CO)C(=O)N[C@@H](CO)C(=O)NCC(=O)N[C@@H](C)C(=O)N1CCC[C@H]1C(=O)N1CCC[C@H]1C(=O)N1CCC[C@H]1C(=O)N[C@@H](CO)C(N)=O [Compound 218] ({X33-βAla}-EGTFTSDYSI[Aib]LDKIAQK([AEEA-AEEA-γGlu-C20 diacid])AFVQWLIAGGPSSGAPPPS-NH2)	9.00 to 10.00	103%	9.00 to 10.00	100%	> 6.00	< 6.00
CC[C@H](C)[C@H](NC(=O)[C@H](CC(C)C)NC(=O)[C@H](Cc1c[nH]c2ccccc12)NC(=O)[C@H](CCC(N)=O)NC(=O)[C@@H](NC(=O)[C@H](Cc1ccccc1)NC(=O)[C@H](C)NC(=O)[C@H](CCCCNC(=O)COCCOCCNC(=O)COCCOCCNC(=O)CC[C@H](NC(=O)CCCCCCCCCCCCCCCCCCC(=O)O)C(=O)O)NC(=O)[C@H](CCC(N)=O)NC(=O)[C@H](C)NC(=O)[C@@H](NC(=O)[C@H](CCCCN)NC(=O)[C@H](CC(=O)O)NC(=O)[C@H](CC(C)C)NC(=O)C(C)(C)NC(=O)[C@@H](NC(=O)[C@H](CO)NC(=O)[C@H](Cc1ccc(O)cc1)NC(=O)[C@H](CC(=O)O)NC(=O)[C@H](CO)NC(=O)[C@@H](NC(=O)[C@H](Cc1ccccc1)NC(=O)[C@@H](NC(=O)CNC(=O)[C@H](CCC(=O)O)NC(=O)CCNC(=O)C(C)(C)c1ccc(C#N)cc1F)[C@@H](C)O)[C@@H](C)O)[C@@H](C)CC)[C@@H](C)CC)C(C)C)C(=O)N[C@@H](C)C(=O)NCC(=O)NCC(=O)N1CCC[C@H]1C(=O)N[C@@H](CO)C(=O)N[C@@H](CO)C(=O)NCC(=O)N[C@@H](C)C(=O)N1CCC[C@H]1C(=O)N1CCC[C@H]1C(=O)N1CCC[C@H]1C(=O)N[C@@H](CO)C(N)=O [Compound 149] ({X22-βAla}-EGTFTSDYSI[Aib]LDKIAQK([AEEA-AEEA-γGlu-C20 diacid])AFVQWLIAGGPSSGAPPPS-NH2)	9.00 to 10.00	98%	8.00 to 9.00	96%	> 6.00	< 6.00
CC[C@H](C)[C@H](NC(=O)[C@H](CO)NC(=O)[C@H](CCCCNC(=O)COCCOCCNC(=O)COCCOCCNC(=O)CC[C@H](NC(=O)CCCCCCCCCCCCCCCCCCC(=O)O)C(=O)O)NC(=O)[C@H](CC(=O)O)NC(=O)[C@H](CO)NC(=O)[C@@H](NC(=O)[C@](C)(Cc1ccccc1F)NC(=O)[C@@H](NC(=O)CNC(=O)[C@H](CCC(=O)O)NC(=O)CCNC(=O)C1(c2ccccc2)CNC(=O)C1)[C@@H](C)O)[C@@H](C)O)C(=O)N[C@@H](Cc1ccc(O)cc1)C(=O)N[C@@H](CC(C)C)C(=O)N[C@@H](CC(=O)O)C(=O)N[C@@H](CCCCN)C(=O)N[C@@H](CCC(N)=O)C(=O)N[C@@H](C)C(=O)N[C@@H](C)C(=O)NC(C)(C)C(=O)N[C@@H](CCC(=O)O)C(=O)N[C@@H](Cc1ccccc1)C(=O)N[C@H](C(=O)N[C@@H](CC(N)=O)C(=O)N[C@@H](Cc1c[nH]c2ccccc12)C(=O)N[C@@H](CC(C)C)C(=O)N[C@@H](CC(C)C)C(=O)N[C@@H](C)C(=O)NCC(=O)NCC(=O)N1CCC[C@H]1C(=O)N[C@@H](CO)C(=O)N[C@@H](CO)C(=O)NCC(=O)N[C@@H](C)C(=O)N1CCC[C@H]1C(=O)N1CCC[C@H]1C(=O)N1CCC[C@H]1C(=O)N[C@@H](CO)C(N)=O)C(C)C (stereo partly drawn) [Compound 138] ({X27-βAla}-EGT[αMePhe(2-F)]TSDK([AEEA-AEEA-γGlu-C20 diacid])SIYLDKQAA[Aib]EFVNWLLAGGPSSGAPPPS-NH2)	> 10.00	100%	9.00 to 10.00	100%	> 6.00	> 6.00
